Experimental data from paper PMC12866179, “Oxidized MIF is an Alzheimer’s disease drug target relaying external risk factors to tau pathology” (Cell Reports Medicine, 2025).

Experiments:
HSV-1 = assay: Virus plaque assay in HSV-1-infected Vero cells; type: cell-based, HSV-1 KOS strain; details: Human alphaherpesvirus 1, read-out: IC50, HSV-1 replication, plaque assay
Experimental: Virus titer determination was carried out in 25-cm^2 flasks or 6-well plates with confluent Vero cells. The virus stock was serially diluted in Medium 199. 1 mL of each of the dilutions was added to the Vero cells in duplicates and incubated for 2h. Then the inoculum was aspirated and DMEM supplemented with 5% NBCS and 7.5 μg/mL human immunoglobulin (Sigma) was added. After two days the cells were washed twice with PBS and fixed with MeOH for 5 min at RT. Then 1:10 diluted KaryoMax Giemsa stain solution (Gibco) was added to the cells and incubated for 20 min at RT. Following washing with water the plaques were counted under the microscope and the titer was calculated. 4x10^5 Vero cells, 8x10^5 SH-SY5Y or 2x10^6 differentiated LUHMES (differentiation day 6) cells were seeded into 12-well plates. After 24h the cells were treated with compounds (as indicated in the figures) and after 1h they were infected with HSV-1 applying MOIs as described in the figures. After 20h (or at indicated time points) cells were either washed twice with PBS, then lysed in cold PBS/1% NP40 including the cOmplete EDTA-free protease inhibitor cocktail (Roche) and phosphatase inhibitor cocktail (Sigma) or virus was released by freeze-thawing and ultrasonic treatment for analysis in viral plaque assay (see above).

wt-MIF and MIF-C80W = assay: SEC-HPLC-MALS of MIF with or without compound; design: species or system human; details: 100 μM MIF, 100 μM PAV-174
Experimental: The samples for SEC-HPLC-MALS were 100 μM of MIF (WT or mutant C80W) in 20 mM phosphate buffer, with or without compound PAV-174 (100 μM).
The HPLC-MALS was performed at 0.5 mL/min and 25°C with an Agilent 1200 series HPLC system and a size exclusion column TSKgel G2000SWXL from Tosoh bioscience. The detection was performed recording the UV absorbance at 280 nm with the HPLC detector and the light scattering with a miniDawn Treos spectrometer from Wyatt. The molecular weight of the detected species is calculated using the extinction coefficients at 280 nm (12950 M^−1 cm^−1 for WT and 18450 M^−1 cm^−1 for C80W), absorbance at 280 nm and the Rayleigh ratio using the built-in function in Astra software.

[1] = target: T1, D-dopachrome tautomerase (D-DT) (Homo sapiens, UniProt P30046); assay: Drug resin affinity chromatography (DRAC), D-DT; type: binding; details: SH-SY5Y-tau-P301S lysates
T1 construct: Lysates derived from SH-SY5Y-tau-P301S control; endogenous in cells; host or cells: SH-SY5Y-tau-P301S control and MIF-ko cell lysates
Experimental: For drug resin affinity chromatography (DRAC), supernatant of cell lysates or brain extracts were supplemented with 1 mM of ribonucleoside triphosphates (ATP, GTP, CTP, UTP; NEB), 10 mM creatine phosphate (Sigma) and 10 μL/mL of a 5 mg/mL stock solution of creatine kinase (Sigma). The samples were then loaded onto 20 μL of compound-coupled resin that were equilibrated with PBB-buffer (plus supplements). After one hour of incubation at 26°C, the beads were washed with PBB (100x bed volume). Bound proteins were then eluted either with 200 μM PAV-645 (pig brain) or 100 μM free compound (human brain samples; cell lysates) in the same buffer used as competitor solution or for stripping 1% SDS or 8M urea (cell lysates) for 1h. All elutions were kept frozen until further analysis.
Figure S3. PAV-17 4 reduces ta u phosphorylation al s o in the abs enc e of HSV-1-infection in a MIF and dose dependent manner. Rel a ted to Figure 3
(A) SH-SY5Y-tau-P301S cel ls could efficiently been infected with HSV-1. The cel ls we re infected with increasing MOIs (0 .0 3 to 3. 0 ) of HSV-1 an d then lysed af t er 6h , 9h , 16 h or 24 h. […]
(E) Expression of MIF wa s no t mo du late d up on infection with HSV-1. […] The di ag ram di splays the quantification of MIF normalized to GAPDH derived from three in de pe nd en t exper iments (n =3). […]

Structure (SMILES)	IC50 (HSV-1) [nM]	effect on monomer-trimer equilibrium / oligomerization of MIF (wt-MIF and MIF-C80W)	binding of / interaction with D-DT [1]
CCc1cc(N2CCCC2)cc2[s+]c3cc(N4CCCC4)cc(C)c3nc12.[I-] [PAV-174, 3,7-Di(pyrrolidine-1-yl) 1-ethyl-9-methyl-phenothiazin-5-ium iodide]	34	does not perturb the monomer-trimer equilibrium	
[I-].c1cc2nc3ccc(N4CCCC4)cc3[s+]c2cc1N1CCCC1 [PAV-617, 3,7-Di(pyrrolidine-1-yl)phenothiazine-5-ium iodide]			no bi nd ing of D-DT
